Results: patent US8139339B2, “Modulation of neuromuscular functions with ultrashort electrical pulses” (Old Dominion University Research Foundation, priority 2007, dated 2012)
Read-outs that look alike come from different tables or passages of the source.

Key:
[1] = test system: liver cells; conditions: oxidative stress-activated NSCCs; cited from earlier work
[2] = test system: nsPEF-opened conductance pores; assay: whole-cell patch clamp of membrane conductance/resistance after nsPEF exposure; assay type: cell-based; conditions: for condition of nsPEF-exposed cells: added prior to exposure to 1 or 5 pulses
From the text: Patch clamp recording: Cells on a cover slip were transferred into a glass-bottomed chamber (Warner Instruments, Hamden, Conn.) mounted on a motorized stage (Prior Scientific Inc., Rockland, Mass.) of an IX71 FluoView™ 300 confocal laser scanning microscope. Recording pipettes were pulled from 1B150F-4 glass (World Precision Instruments, Sarasota, Fla.) to a tip resistance of 1.5-3 MOhm and moved into a position with a model 6500 hydraulic micromanipulator (Siskiyou, Grants Pass, Oreg.). Electrophysiology data were acquired using a Multiclamp 700B amplifier, Digidata 1322A A-D converter, and pCLAMP 10 software (Molecular Devices, Foster City, Calif.). The analog signal was low-pass filtered at 2 or 5 kHz, and digitized at “oversampling” rates of 10 to 50 kHz. The series resistance was not compensated. Typical values of the seal and access resistance were 4-15 GOhm and 4-10 MOhm, respectively, except for a solution pair HEPES/Cl. […] The data from these experiments were analyzed differently (see below).
As shown in the inventors preliminary experiments, nsPEF exposure could be damaging to the gigaohmic seal between the cell membrane and the glass pipette, thereby effectively destroying the patch-clamp recording configuration. […] The exposure of intact (rather than already “patched”) cells effectively removed any concerns about possible artifacts caused by the presence of the glass pipette during the exposure.
Once the whole-cell configuration was formed, the membrane resistance and capacitance (Rm and Cm) were measured using the Membrane Test utility of pClamp10 software. The holding level was set at −70 or −60 mV; 10- or 20-mV test pulses were applied at 30- to 100-Hz rates and averaged on-line (n=6-12). The membrane potential (MP) was measured by switching briefly from voltage to current clamp mode at I=0.
After Cm compensation, the holding membrane potential was set to −70 mV. In most experiments, the I-V relationship was obtained by applying voltage ramps, typically from −100 to +100 mV within 20-40 ms, and preceded by a brief step to −100 mV. Passive Gm was determined as the slope of the I-V curve by a best fit linear approximation through a region that contained no visible voltage-gated currents, usually from −80 to −50 mV. As one would expect, these Gm values correlated very closely with the inverse of Rm values measured using the Membrane Test. Erev was determined in a usual manner, as an intercept of the best fit line with abscissa.
Exposure to nsPEF and local E-field modeling: A Blumlein line pulse generator (Kolb, J. F., S. Kono, and K. H. Schoenbach. 2006. Nanosecond pulsed electric field generators for the study of subcellular effects. Bioelectromagnetics 27:172-187) produced nearly rectangular 60-ns pulses that were delivered to the selected cell by a pair of tungsten electrodes (0.125 mm electrode diameter, 0.31 mm gap between the electrodes). With a help of a micromanipulator, the electrodes were positioned 5-10 μm above the surface of the cover slip on the sides of the selected cell; the cell was in the middle of the gap between the electrodes, at a distance of about 50-100 μm from their tips.
To check if activation of endogenous NSCCs was responsible (at least in part) for observed nsPEF effects, an attempt was made by the inventors to modify these effects with ruthenium red and with lanthanide ions. It should be noted, however, that these substances are not truly specific and can affects various other channels and intracellular processes.
Ruthenium red was added to the bath solution of the K/Na pair (see Table 1) at 10, 50, or 200 μM prior to exposure to 1 or 5 pulses, and the whole-cell currents were recorded after the exposure in the usual manner.

[3] = test system: hippocampal CA1 neurons; conditions: cited from earlier work

Row | SMILES | number of necrotic cells [1] | protective effect against nsPEF permeabilization ([2]; 0.2 mM, initial trials) | swelling and other deleterious effects of oxygen-glucose deprivation ([3]; 100 μM) | effect on membrane conductance increase by nsPEF ([2]; 10 μM in bath of K/Na pair, added prior to exposure) | effect on control (sham-exposed) cells ([2]; 50 μM in bath of K/Na pair) | condition of nsPEF-exposed cells ([2]; 50 μM in bath of K/Na pair) | effect on control (sham-exposed) cells ([2]; 200 μM in bath of K/Na pair) | condition of nsPEF-exposed cells ([2]; 200 μM in bath of K/Na pair) | swelling and other deleterious effects of oxygen-glucose deprivation ([3]; 1 μM)
1 | [Cl][Gd]([Cl])[Cl] [Gd^3+, GdCl3] | sharply decreased | no protection | reduced swelling |  |  |  |  |  | 
2 | [Cl][La]([Cl])[Cl] [La^3+, LaCl3] |  |  | reduced swelling |  |  |  |  |  | 
3 | N.N.N.N.N.N.N.N.N.N.N.N.N.N.[Cl-].[Cl-].[Cl-].[Cl-].[Cl-].[Cl-].[O-2].[O-2].[Ru+3].[Ru+3].[Ru+4] [ruthenium red] |  |  |  | neither enhanced nor inhibited | no apparent effect | worsened the condition of nsPEF-exposed cells | no apparent effect | worsened the condition of nsPEF-exposed cells | reduced swelling
